This passage reports EC50 results from patent US20210315893A1 (Galapagos NV, priority 2017, published 2021).

Where only a bound is given, the exact number is not on record here.

Experiment [1] concerns the target T1, S1PR2 (Homo sapiens, UniProt O95136).
T1 construct: expressed in transfected cells
In words: S1PR2 binding assay (competition with radioactively labeled S1P, SpA). The following applies: membranes from stable cell line over expressing S1PR2, SpA beads; read-out: S1P2 EC50 (nM), S1PR2 binding EC50. In short, it runs like this: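 Scintillation proximity read-out after 2 h room-temperature incubation of compound, [3H]S1P and S1PR2-overexpressing cell membranes on WGA-coated beads. Buffer: 20 mM Tris pH 7.5, 100 mM NaCl, 10 mM MgCl2, 1 mM Na3VO4, 0.4% fatty-acid-free BSA; plates counted immediately after centrifugation.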

Experiment [2] deals with HFL-1 cells. The experiment can be described thus: IL8 assay in the presence of Human Serum Albumin. The following applies: HFL1, read-out: HSA IL8 EC50.
Experiment [3] deals with T2, human GPCR sphingosine 1-phosphate receptor 1 (Homo sapiens, UniProt P21453).
T2 construct: host or cells: CHO
The experiment can be described thus: S1PR1 selectivity Ca2+ flux assay (antagonist readout). The class given is cell-based. The following applies: antagonist readout, CHO cells overexpressing human S1PR1 and Gq, S1P at EC80 (6 nM); read-out: S1P1 EC50 (nM), S1P1 antagonist EC50. Here is the method:
50 μL of Chinese hamster ovary (CHO) cells stably overexpressing human S1PR1 or S1PR5 are seeded in 384 well sterile microplates (7,500 cells/well or 10,000 cells/well respectively) and are incubated overnight at 37° C. under 5% CO2. Cells are subsequently washed twice with 25 μL/well of starvation medium (F-12 Ham's medium containing 0.1% fatty acid free bovine serum albumin (FAF BSA)). After one h starvation at 37° C., 5% CO2, cells are loaded with 25 μL of Fluo 8 dye diluted in Hank's balanced salt solution (HBSS) with 20 mM Hepes complemented with 5 mM of probenecid following the recommendations of the manufacturer (one h at 37° C., 5% CO2). Dilution series of compounds are prepared in HBSS buffer with 20 mM Hepes and 0.1% BSA (FAF). 10 μL of diluted compound is added to the cells using the FDSS/pCELL and intracellular calcium changes are measured immediately by recording fluorescence during 3 min (agonist readout). The ratio of maximal signal over background before compound injection is used to determine compound response.
After an incubation of 15 min at 37° C., following the agonist readout, the plates are transferred to the FDSS/pCELL reader. […] The ratio of maximal signal over background before S1P injection was used to determine the inhibitory effect ofthe compound.
Raw data obtained in each experiment (ratio of maximal signal over background for calcium mobilization assays) were normalized in percentage of activation (agonist mode) or inhibition (antagonist mode) using positive and negative experiment controls. Each individual plate quality was assessed by evaluation of Z′ factor calculated with raw data using the following equation
Y=bottom+(top−bottom)/(1+(10^(Log IC50−X)*Hillslope)) where X is the logarithm of the concentration of the compound

Experiment [4] has as its system HFL-1 cells. In words: IL-8 production assay (S1P induced IL-8). In kind it is cell-based. Conditions: Homo sapiens, HFL1; S1P (1 μM) induced IL-8 in HFL-1 cells, starvation medium without HSA; read-out: IL8 EC50. In short, it runs like this: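 HFL-1 fibroblasts in low-serum medium were pretreated 1 h with a 10-point 1/3 series of compound starting at 30 μM (0.3% DMSO).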

In experiment [5] the target is T3, human GPCR sphingosine 1-phosphate receptor 2 (Homo sapiens, UniProt O95136).
T3 construct: host or cells: CHO
The experiment can be described thus: S1PR2 antagonist Ca2+ flux assay. Conditions: antagonist mode, CHO-S1PR2 cells, S1P at EC80, Ca2+ fluorescence; read-out: S1P2 EC50 (nM), S1P2 antagonist EC50. In kind it is cell-based. The method, boiled down: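 Antagonist mode: 15 min after compound addition, S1P (EC80) stimulates Fluo8-loaded, 1 h-starved CHO-S1PR2 cells, Ca2+ read over 3 min; a prior 3-min read checks compound agonism. EC50 from peak/baseline fluorescence ratio, normalised versus vehicle and S1P EC50 (antagonist) or EC100 (agonist).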
A general note: A change in cytosolic calcium serves as a functional read-out for many receptors and channels.

T2 sequence (P21453 whole entry): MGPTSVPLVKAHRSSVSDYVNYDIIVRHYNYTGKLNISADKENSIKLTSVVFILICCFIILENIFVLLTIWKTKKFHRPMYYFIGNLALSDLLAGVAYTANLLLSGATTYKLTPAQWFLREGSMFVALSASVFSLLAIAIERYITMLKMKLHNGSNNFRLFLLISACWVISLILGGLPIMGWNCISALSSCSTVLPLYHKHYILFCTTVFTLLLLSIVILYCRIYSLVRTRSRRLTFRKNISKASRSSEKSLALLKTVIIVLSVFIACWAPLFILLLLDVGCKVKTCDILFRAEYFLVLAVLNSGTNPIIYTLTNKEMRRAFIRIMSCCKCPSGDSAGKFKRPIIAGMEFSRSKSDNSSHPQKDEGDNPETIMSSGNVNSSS
T1 sequence (O95136 whole entry): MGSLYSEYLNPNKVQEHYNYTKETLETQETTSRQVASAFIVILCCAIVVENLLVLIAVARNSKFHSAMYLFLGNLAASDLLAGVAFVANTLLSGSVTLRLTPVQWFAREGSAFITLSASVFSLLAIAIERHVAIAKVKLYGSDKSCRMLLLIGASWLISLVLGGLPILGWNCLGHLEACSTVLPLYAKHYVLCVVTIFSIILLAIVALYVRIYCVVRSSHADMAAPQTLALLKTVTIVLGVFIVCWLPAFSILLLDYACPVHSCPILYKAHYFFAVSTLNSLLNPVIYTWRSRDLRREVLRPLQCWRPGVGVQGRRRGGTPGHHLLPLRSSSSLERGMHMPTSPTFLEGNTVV
T3 sequence (O95136 whole entry): as above

What is called EC50 is the concentration at which the effect is half-maximal. Take `CN1CCC(n2nc(Cc3nc4cc(OCC(F)F)c(C#N)cc4[nH]3)c3ccccc3c2=O)C1` (stereo not shown) [Compound 72, 6-(2,2-difluoroethoxy)-2-[[3-(1-methylpyrrolidin-3-yl)-4-oxo-phthalazin-1-yl]methyl]-3H-benzimidazole-5-carbonitrile]: the EC50 is 3090 nM in experiment [1], 1950 nM in experiment [2], no less than 19800 nM in experiment [3] and 5180 nM in experiment [4].
Regarding `O=C(O)C1CCC1n1nc(Cn2cc3cc(OCC4CC4)c(Cl)cc3n2)c2ccccc2c1=O` (stereo not shown) [Compound 91, 2-[4-[[6-chloro-5-(cyclopropylmethoxy)indazol-2-yl]methyl]-1-oxo-phthalazin-2-yl]cyclobutanecarboxylic acid], the concentration for a half-maximal effect (EC50) in experiment [5] is 22.2 nM; in experiment [2] it was 5710 nM; in experiment [3], no less than 19800 nM; in experiment [4], 60.7 nM.
As for `O=C(O)Cn1nc(Cc2nc3cc(OC(F)(F)F)c(Cl)cc3[nH]2)c2ccccc2c1=O` [Compound 112, 2-[4-[[6-chloro-5-(trifluoromethoxy)-1H-benzimidazol-2-yl]methyl]-1-oxo-phthalazin-2-yl]acetic acid], the EC50 in experiment [2] is 1640 nM; in experiment [3], no less than 19900 nM; in experiment [4] it was 541 nM.
On to `O=C(O)Cn1nc(Cc2nc3cc(Cl)c(OC(F)(F)F)cc3[nH]2)c2c(c1=O)CCCC2` [Compound 113, 2-[4-[[5-chloro-6-(trifluoromethoxy)-1H-benzimidazol-2-yl]methyl]-1-oxo-5,6,7,8-tetrahydrophthalazin-2-yl]acetic acid], for which the EC50 is 154 nM in experiment [1]; 23.7 nM in experiment [5]; 917 nM in experiment [2]; no less than 19900 nM in experiment [3]; 418 nM in experiment [4].
`COc1cc2nc(Cc3nn(CC(=O)O)c(=O)c4ccccc34)[nH]c2cc1Cl` [Compound 136, 2-[4-[(6-chloro-5-methoxy-1H-benzimidazol-2-yl)methyl]-1-oxo-phthalazin-2-yl]acetic acid]: the EC50 is no less than 19900 nM in experiment [3] and 26 nM in experiment [4].
For `CCOc1cc2cn(Cc3nn(CC(=O)O)c(=O)c4ccccc34)nc2cc1Br` [Compound 137, 2-[4-[(6-bromo-5-ethoxy-indazol-2-yl)methyl]-1-oxo-phthalazin-2-yl]acetic acid], the EC50 in experiment [1] was 59.4 nM; in experiment [5], 21 nM; in experiment [2] it was 3180 nM; in experiment [3], no less than 19900 nM; in experiment [4] it was 105 nM.
`O=C(Cn1nc(Cc2nc3cc(OC(F)(F)F)c(Cl)cc3[nH]2)c2ccccc2c1=O)NC1CCS(=O)(=O)CC1` [Compound 141, 2-[4-[[6-chloro-5-(trifluoromethoxy)-1H-benzimidazol-2-yl]methyl]-1-oxo-phthalazin-2-yl]-N-(1,1-dioxothian-4-yl)acetamide]: the EC50 was 70.6 nM in experiment [1], 21.1 nM in experiment [5], no less than 19900 nM in experiment [3] and 130 nM in experiment [4].
`CN(C)[C@H]1CCN(C(=O)Cn2nc(Cn3cc4cc(OCC(F)F)c(C#N)cc4n3)c3ccccc3c2=O)C1` [Compound 207, 5-(2,2-difluoroethoxy)-2-[[3-[2-[(3S)-3-(dimethylamino)pyrrolidin-1-yl]-2-oxo-ethyl]-4-oxo-phthalazin-1-yl]methyl]indazole-6-carbonitrile]: the EC50 in experiment [1] was 21900 nM; in experiment [5], no less than 19800 nM; in experiment [2], 3030 nM; in experiment [4], 29900 nM.
For `CC1(O)CCN(C(=O)Cn2nc(Cc3cn4cc(OCC5CC5)c(C#N)cc4n3)c3ccccc3c2=O)C1` (stereo not shown) [Compound 210, 6-(cyclopropylmethoxy)-2-[[3-[2-(3-hydroxy-3-methyl-pyrrolidin-1-yl)-2-oxo-ethyl]-4-oxo-phthalazin-1-yl]methyl)imidazo[1,2-a]pyridine-7-carbonitrile] the same measures were 233 nM, 102 nM, 188 nM and 356 nM.
In the case of `N#Cc1cc2[nH]c(Cc3nn(CC(=O)N4CCC(C#N)CC4)c(=O)c4ccccc34)nc2cc1OCC(F)F` [Compound 219, 2-[[3-[2-(4-cyano-1-piperidyl)-2-oxo-ethyl]-4-oxo-phthalazin-1-yl]methyl]-6-(2,2-difluoroethoxy)-3H-benzimidazole-5-carbonitrile], the EC50 in experiment [1] turned out to be 265 nM; in experiment [5], 32.4 nM; in experiment [2], 607 nM; in experiment [4], 177 nM.
With `CN(CCS(C)(=O)=O)C(=O)Cn1nc(Cc2nc3cc(OCC(F)F)c(C#N)cc3[nH]2)c2ccccc2c1=O` [Compound 220, 2-[4-[[6-cyano-5-(2,2-difluoroethoxy)-1H-benzimidazol-2-yl)methyl]-1-oxo-phthalazin-2-yl]-N-methyl-N-(2-methylsulfonylethyl)acetamide], the EC50 in experiment [1] stood at 320 nM; in experiment [5], 52.6 nM; in experiment [2], 325 nM; in experiment [4], 102 nM.
For `CS(=O)(=O)C1CCN(C(=O)Cn2nc(Cc3nc4cc(OCC(F)F)c(C#N)cc4[nH]3)c3ccccc3c2=O)C1` (stereo not shown) [Compound 221, 6-(2,2-difluoroethoxy)-2-[[3-[2-(3-methylsulfonylpyrrolidin-1-yl)-2-oxo-ethyl]-4-oxo-phthalazin-1-yl]methyl]-3H-benzimidazole-5-carbonitrile] the same measures were 365 nM, 45.8 nM, 387 nM and 127 nM.
In the same order, the values of `CC1(C)CCN(C(=O)Cn2nc(Cc3nc4cc(OCC(F)F)c(C#N)cc4[nH]3)c3ccccc3c2=O)C1` [Compound 233, 6-(2,2-difluoroethoxy)-2-[[3-[2-(3,3-dimethylpyrrolidin-1-yl)-2-oxo-ethyl]-4-oxo-phthalazin-1-yl]methyl]-3H-benzimidazole-5-carbonitrile] are 210 nM, 16.8 nM, 562 nM and 28.8 nM.
With `N#Cc1cc2[nH]c(Cc3nn(CC(=O)N4CCC5(C4)CC5(F)F)c(=O)c4ccccc34)nc2cc1OCC(F)F` (stereo not shown) [Compound 235, 2-[[3-[2-(2,2-difluoro-5-azaspiro[2.4]heptan-5-yl)-2-oxo-ethyl]-4-oxo-phthalazin-1-yl]methyl]-6-(2,2-difluoroethoxy)-3H-benzimidazole-5-carbonitrile], the EC50 in experiment [1] was found to be 117 nM; in experiment [5], 18.2 nM; in experiment [2], 159 nM; in experiment [4], 49.2 nM.
In the same order, the values of `O=c1c2ccccc2c(Cn2cc3cc(OCC4CC4)c(Cl)cc3n2)nn1C1CNC1` [compound 2, 2-(azetidin-3-yl)-4-[[6-chloro-5-(cyclopropyl-methoxy)indazol-2-yl]methyl]-phthalazin-1-one] are 75.7 nM, 81.6 nM, 166 nM and 38.8 nM.
In the same order, the values of `CC(=O)N1CCCC1Cn1nc(Cc2nc3cc(Cl)c(OC(F)(F)F)cc3[nH]2)c2ccccc2c1=O` (stereo not shown) [compound 14, 2-[(1-acetylpyrrolidin-2-yl)-methyl]-4-[[5-chloro-6-(tri-fluoromethoxy)-1H-benzimidazol-2-yl]methyl]-phthalazin-1-one] are 4950 nM, 615 nM, 10000 nM and 1450 nM.
In the same order, the values of `O=C(O)Cc1nn(Cc2cc3cc(Cl)c(OCC4CC4)cc3[nH]2)c2ccccc2c1=O` [compound 16, 2-[1-[[5-chloro-6-(cyclopropyl-methoxy)-1H-indol-2-yl]-methyl]-4-oxo-cinnolin-3-yl]-acetic acid] are 29.9 nM, 4.58 nM, 51.4 nM and 8.49 nM.
